45 compounds from patent publication US9707234B2, “Spirocyclic hetercycle compounds useful as HIV integrase inhibitors” (MERCK SHARP & DOHME CORP., priority 2013, dated 2017) can be followed below.

Read-outs that look alike come from different tables or passages of the source.

The test system of this test is HIV-1 (H9IIIB or NL4-3 virus) replication in MT4-GFP cells. Kind of test: microbe, parasite or virus in culture. It is filed as cell-based. The following applies: inhibition of reproductive ratio R0, 48-72 h post-infection.
The mark [1] stands for this setting: Human immunodeficiency virus 1, NL43, MT4-GFP cells infected with HIV-1, 100% normal human serum, read-out: ViKinG IP (nM) with 100% NHS.
The mark [2] stands for this setting: Human immunodeficiency virus 1, NL43, MT4-GFP cells infected with HIV-1, serum free conditions (0% NHS), read-out: ViKinG IP (nM) with 0% NHS.
Setting [3] is: MT4-GFP cells infected with HIV-1, 100% normal human serum, read-out: ViKinG IP (nM) with 100% NHS.
The mark [4] stands for this setting: MT4-GFP cells infected with HIV-1, serum free conditions (0% NHS), read-out: ViKinG IP (nM) with 0% NHS.
The mark [5] stands for this setting: Human immunodeficiency virus 1, NL43, MT4-GFP cells infected with HIV-1, 10% normal human serum, read-out: ViKinG IP (nM) with 10% NHS.

In the case of `CN1C(=O)c2c(O)c(=O)c(C(=O)NCc3ccc(F)cc3)cn2N(C)C12CCOC2` (single isomer, unassigned) [Compound 113], the IC50 under setting [1] came to 94 nM and the IC50 under setting [2] was determined as 1.5 nM.

Regarding `CCN1C(=O)c2c(O)c(=O)c(C(=O)NCc3ccc(F)cc3F)cn2N(C)C12CCOC2` (single isomer, unassigned) [Compound 120], the IC50 is, setting by setting: under setting [3], 266 nM; under setting [4], 2.1 nM.

Turning to `O=C(NCc1ccc(F)cc1F)c1cn2c(c(O)c1=O)C(=O)N(CCCC(F)(F)F)C1(CCOCC1)C2` [Compound 46], the IC50 is, setting by setting: under setting [1], 110 nM; under setting [2], 3.2 nM.

`CCN1C(=O)c2c(O)c(=O)c(-c3nnc(Cc4ccc(F)cc4F)s3)cn2N(C)C12CCNCC2` [Compound 32]: the IC50 is, setting by setting: under setting [1], 74 nM; under setting [2], 8 nM.

Regarding `COCCN1C(=O)c2c(O)c(=O)c(C(=O)NCc3ccc(F)c(F)c3F)cn2CC12CCOC2` (single isomer, unassigned) [Compound 72], the IC50 worked out at 290 nM under setting [3] and 4.6 nM under setting [4].

As for `CC1OCCC12N(C)C(=O)c1c(O)c(=O)c(C(=O)NCc3cccc(Cl)c3F)cn1N2C` (single isomer, unassigned) [Compound 135], the IC50 is 0.9 nM under setting [2] and 486 nM under setting [3].

For `CCN1C(=O)c2c(O)c(=O)c(-c3nnc(Cc4ccc(F)cc4F)s3)cn2N(C)C12CCOC2` (single isomer, unassigned) [Compound 35], the IC50 was 133 nM under setting [3] and 1.7 nM under setting [4].

For the compound `COCCN1C(=O)c2c(O)c(=O)c(C(=O)NCc3ccc(F)cc3F)cn2CC12CCCOC2` (single isomer, unassigned) [Compound 84], the IC50 by setting is: under setting [3], 1960 nM; under setting [4], 4.5 nM.

For the compound `CCN1C(=O)c2c(O)c(=O)c(-c3nnc(Cc4ccc(F)cc4F)s3)cn2CC12CCOCC2` [Compound 99], the IC50 is, setting by setting: under setting [1], 870 nM; under setting [2], 40.9 nM.

For the compound `CCN1C(=O)c2c(O)c(=O)c(-c3nnc(Cc4ccc(F)cc4F)s3)cn2N(C)C12CCN1C(=O)CCC1C2` (stereo not shown) [Compound 14], the IC50 under setting [5] worked out at 41 nM.

For `COCCN1C(=O)c2c(O)c(=O)c(C(=O)NCc3ccc(F)cc3F)cn2N(C)C12CCOC2` (single isomer, unassigned) [Compound 122], the IC50 is, setting by setting: under setting [3], 1990 nM; under setting [4], 2.4 nM.

Take `CCOP(=O)(CCN1n2cc(C(=O)NCc3ccc(F)cc3F)c(=O)c(O)c2C(=O)N(C)C12CCOC2)OCC` (single isomer, unassigned) [Compound 159]: the IC50 under setting [1] turned out to be 71 nM.

On to `CN1C(=O)c2c(O)c(=O)c(C(=O)NCc3ccc(F)cc3F)cn2CC12CCNCC2` [Compound 88], for which the IC50 is 97 nM under setting [1] and 10.3 nM under setting [2].

Regarding `COCCN1C(=O)c2c(O)c(=O)c(C(=O)NCc3ccc(F)cc3F)cn2CC12COC2` [Compound 70], the IC50 is 91 nM under setting [1] and 2.5 nM under setting [2].

With `CN1C(=O)c2c(O)c(=O)c(-c3cnn(Cc4ccc(F)cc4F)c3)cn2CC12CCOC2` (stereo not shown) [Compound 90], the IC50 under setting [1] came out at 123 nM and the IC50 under setting [2] was determined as 34.1 nM.

As to `CN1C(=O)c2c(O)c(=O)c(C(=O)NCc3c(F)cc(F)cc3F)cn2CC12CCOC2` (single isomer, unassigned) [Compound 63], the IC50 under setting [1] was 17 nM and the IC50 under setting [2] was found to be 1.9 nM.

With `COCCCN1C(=O)c2c(O)c(=O)c(C(=O)NCc3ccc(F)cc3F)cn2CC12CCOCC2` [Compound 43], the IC50 worked out at 39 nM under setting [1] and 3 nM under setting [2].

`CCN1C(=O)c2c(O)c(=O)c(-c3nnc(Cc4ccc(F)cc4F)s3)cn2N(C)C12CCN(c1ncccn1)CC2` [Compound 17]: the IC50 was 1520 nM under setting [1] and 29.3 nM under setting [2].

As for `CCN1C(=O)c2c(O)c(=O)c(C(=O)NCc3ccc(F)cc3F)cn2CC12CCCOC2` (stereo not shown) [Compound 81], the IC50 reads like this: under setting [2], 4.3 nM; under setting [3], 323 nM.

Consider `CN1C(=O)c2c(O)c(=O)c(C(=O)NCc3ccc(F)c(Cl)c3)cn2CC12CCOC2` (single isomer, unassigned) [Compound 61], for which the IC50 is, setting by setting: under setting [1], 119 nM; under setting [2], 2.4 nM.

On to `C[C@H]1CC2(CCN1C(=O)OCc1ccccc1)N(C)C(=O)c1c(O)c(=O)c(-c3nnc(Cc4ccc(F)cc4F)s3)cn1N2C` (stereo partly shown) [Compound 21], for which the IC50 under setting [5] worked out at 141 nM.

As for `CCOCCN1C(=O)c2c(O)c(=O)c(C(=O)NCc3ccc(F)cc3F)cn2CC12CCOC2` (single isomer, unassigned) [Compound 77], the IC50 reads like this: under setting [1], 96 nM; under setting [2], 3 nM.

Turning to `CN1C(=O)c2c(O)c(=O)c(C(=O)NCc3ccc(F)cc3F)cn2N(C)C12CCOC2` (stereo not shown) [Compound 103], the IC50 under setting [5] stood at 6 nM, the IC50 under setting [1] turned out to be 114 nM and the IC50 under setting [4] was 1.7 nM.

For the compound `CCN1C(=O)c2c(O)c(=O)c(C(=O)NCc3ccc(F)cc3F)cn2CC12COC2` [Compound 69], the IC50 reads like this: under setting [1], 452 nM; under setting [2], 3.5 nM.

For `CCOCCN1C(=O)c2c(O)c(=O)c(C(=O)NCc3ccc(F)cc3F)cn2N(C)C12CCOCC2` [Compound 142], the IC50 by setting is: under setting [5], 13 nM; under setting [1], 171 nM; under setting [2], 1.3 nM.

Take `CCN1n2cc(C(=O)NCc3ccc(F)cc3F)c(=O)c(O)c2C(=O)N(C)C12CCOC2` (single isomer, unassigned) [Compound 149]: the IC50 runs as follows: under setting [2], 0.7 nM; under setting [3], 144 nM.

Consider `CCOC(=O)N1CCC2(CC1)N(CC)C(=O)c1c(O)c(=O)c(-c3nnc(Cc4ccc(F)cc4)s3)cn1N2C` [Compound 5], for which the IC50 is 22 nM under setting [5], 250 nM under setting [1] and 16.4 nM under setting [2].

`CN1C(=O)c2c(O)c(=O)c(-c3nnc(Cc4ccc(F)cc4F)s3)cn2N(C)C12CCN(S(=O)(=O)N(C)C)CC2` [Compound 24]: the IC50 was determined as 6 nM under setting [5], 86 nM under setting [1] and 11.9 nM under setting [2].

With `CN1C(=O)c2c(O)c(=O)c(C(=O)NCc3ccc(F)c(Cl)c3F)cn2N(C)C12CCOC2` (single isomer, unassigned) [Compound 118], under setting [3], the IC50 turned out to be 101 nM.

`CCN1C(=O)c2c(O)c(=O)c(-c3nnc(Cc4ccc(F)cc4)s3)cn2N(C)C12CCNCC2` [Compound 33]: the IC50 worked out at 49 nM under setting [5] and 89 nM under setting [1].

On to `CN1C(=O)c2c(O)c(=O)c(-c3nnc(Cc4ccc(F)cc4)s3)cn2N(C)C12CCOC2` (stereo not shown) [Compound 38], for which the IC50 runs as follows: under setting [1], 132 nM; under setting [2], 3.8 nM.

As to `COCN1n2cc(C(=O)NCc3ccc(F)cc3F)c(=O)c(O)c2C(=O)N(C)C12CCOC2` (single isomer, unassigned) [Compound 154], the IC50 stood at 37 nM under setting [3] and 0.7 nM under setting [4].

Consider `CCN1C(=O)c2c(O)c(=O)c(C(=O)NCc3ccc(F)cc3F)cn2N(C)C12CCOC2` (single isomer, unassigned) [Compound 119], for which the IC50 under setting [5] came out at 11 nM, the IC50 under setting [1] turned out to be 163 nM and the IC50 under setting [2] is 1.2 nM.

For the compound `CN1C(=O)c2c(O)c(=O)c(-c3nnc(Cc4ccc(F)cc4F)s3)cn2N(C)C12CCN(S(C)(=O)=O)CC2` [Compound 26], the IC50 under setting [5] came out at 26 nM, the IC50 under setting [1] is 161 nM and the IC50 under setting [2] worked out at 11.5 nM.

As to `COCCN1C(=O)c2c(O)c(=O)c(C(=O)NCc3ccc(F)cc3F)cn2CC12CCCOC2` (single isomer, unassigned) [Compound 83], the IC50 by setting is: under setting [1], 3050 nM; under setting [2], 7.8 nM.

As for `CN1C(=O)c2c(O)c(=O)c(C(=O)NCc3ccc(F)c(Cl)c3F)cn2CC12CCOC2` (stereo not shown) [Compound 55], the IC50 turned out to be 30 nM under setting [1] and 0.6 nM under setting [2].

As to `CCCN1C(=O)c2c(O)c(=O)c(-c3nnc(Cc4ccc(F)cc4F)s3)cn2N(C)C12CCN(C(=O)OCC)CC2` [Compound 7], the IC50 reads like this: under setting [5], 58 nM; under setting [1], 148 nM; under setting [2], 29.9 nM.

Take `COCCN1C(=O)c2c(O)c(=O)c(C(=O)NCc3ccc(F)cc3F)cn2CC12CCOC2` (single isomer, unassigned) [Compound 49]: the IC50 under setting [1] was 123 nM and the IC50 under setting [2] was found to be 2.9 nM.

In the case of `COCCN1C(=O)c2c(O)c(=O)c(C(=O)NCc3ccc(F)c(Cl)c3)cn2CC12CCOC2` (single isomer, unassigned) [Compound 52], the IC50 worked out at 2000 nM under setting [1] and 4.8 nM under setting [2].

Consider `CN1C(=O)c2c(O)c(=O)c(C(=O)NCc3ccc(F)c(Cl)c3F)cn2N(C)C12CCOC2` (single isomer, unassigned) [Compound 117], for which the IC50 under setting [2] was 0.5 nM and the IC50 under setting [3] is 246 nM.

Take `CCCN1C(=O)c2c(O)c(=O)c(C(=O)NCc3ccc(F)cc3F)cn2CC12CCOCC2` [Compound 41]: the IC50 is, setting by setting: under setting [1], 7800 nM; under setting [2], 11.2 nM.

Regarding `O=C1NC2(CCOCC2)Cn2cc(-c3nnc(Cc4ccc(F)cc4F)s3)c(=O)c(O)c21` [Compound 98], the IC50 is, setting by setting: under setting [1], 2030 nM; under setting [2], 91.6 nM.

Regarding `CN1C(=O)c2c(O)c(=O)c(-c3nnc(Cc4ccc(F)cc4F)s3)cn2N(C)C12CCSCC2` [Compound 25], the IC50 by setting is: under setting [5], 17 nM; under setting [1], 257 nM; under setting [2], 5.3 nM.

On to `CCOCCN1C(=O)c2c(O)c(=O)c(C(=O)NCc3cccc(Cl)c3F)cn2CC12CCOC2` (single isomer, unassigned) [Compound 80], for which the IC50 runs as follows: under setting [3], 217 nM; under setting [4], 1.7 nM.

For `CN1C(=O)c2c(O)c(=O)c(C(=O)NCc3ccc(F)cc3F)cn2N(C)C12COCC2(C)C` (single isomer, unassigned) [Compound 129], the IC50 by setting is: under setting [3], 73 nM; under setting [4], 0.6 nM.
